Measured values taken from patent US20030060438A1, “Oligonucleotides and other modulators of the NK-1 receptor pathway and therapeutic uses thereof” (priority 2000, published 2003).

Test system: NK-1 receptor
Experiment: Formalin test, systemic (intraperitoneal) oligonucleotide
Assay type: in vivo, rat
Conditions: 300 micro grams/kg, Q12 h, 6 days prior to testing, vs saline
Method: The formalin test produces a biphasic nociceptive behavior that lasts up to one hour that is believed to represent a tonic, persistent pain. The index of nociceptive behavior is assessed based a weighted pain intensity scale, where the animal is given a value of 0 for showing no signs of favoring of the injected paw, 1—favoring of hind paw such that it is resting lightly on the floor, 2—elevation of hind paw, 3—licking or vigorously shaking the hind paw. The numerical ratings were calculated by multiplying the amount of time the rats spent in each category by the weighted factor indicated above for each 5 minute interval over a one hour time period. This was expressed by the following formula: (time spent in category 0*0+time spent in category 1*1+time spent in category 2*2+time spent in category 3*3)/300 seconds. Antisense (AS) oligonucleotide (300 micro grams/kg, Q12 h, intraperitoneal) or saline was administered for 6 days prior to testing. […] Statistical analysis was performed by a two way ANOVA with time and treatment as independent measures. Time: F=9.966, p<0.001, Treatment: F=31.85, p<0.001.

## 5′gac gtt atc cat ttt ggg g3′ (antisense GACGTTATCCATTTTGGGG; listed as DNA, chemistry not fully specified) [NK-1 receptor antisense oligonucleotide used in all experiments]
  formalin-induced nociceptive scores: nociceptive scores are less
